According to PubChem BioAssay (NCI):
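The compound was tested at five concentrations on cells cultured in 96-well plates, with a 48-hour exposure period. Abbreviation: GI50, concentration required for 50% inhibition of growth. TGI: concentration producing complete growth inhibition.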

Experiments:
Assay in all cases: inhibition of tumour cell growth, NCI panel, 48 h
[1] = tested on: MDA-MB-435
[2] = tested on: MDA-MB-231 breast
[3] = tested on: DU-145 prostate
[4] = tested on: SK-MEL-2 melanoma
[5] = tested on: HCT-15 colon
[6] = tested on: SN12C renal
[7] = tested on: OVCAR-4 ovarian
[8] = tested on: LOX IMVI melanoma
[9] = tested on: OVCAR-8 ovarian
[10] = tested on: NCI-H522 lung
[11] = tested on: SW-620 colon
[12] = tested on: NCI/ADR-RES ovarian
[13] = tested on: NCI-H23 lung
[14] = tested on: SNB-19 CNS
[15] = tested on: A498 renal
[16] = tested on: HS 578T breast
[17] = tested on: T-47D breast
[18] = tested on: COLO 205 colon
[19] = tested on: IGROV1 ovarian
[20] = tested on: CAKI-1 renal
[21] = tested on: BT-549 breast
[22] = tested on: K-562 leukemia
[23] = tested on: UO-31 renal
[24] = tested on: MALME-3M melanoma
[25] = tested on: HL-60(TB) leukemia
[26] = tested on: KM12 colon
[27] = tested on: 786-0 renal
[28] = tested on: UACC-62 melanoma
[29] = tested on: SK-MEL-5 melanoma
[30] = tested on: TK-10 renal
[31] = tested on: M14 melanoma
[32] = tested on: MOLT-4 leukemia
[33] = tested on: SF-539 CNS
[34] = tested on: U251 CNS
[35] = tested on: UACC-257 melanoma
[36] = tested on: SF-295 CNS
[37] = tested on: ACHN renal
[38] = tested on: HT29 colon
[39] = tested on: HOP-62 NSCLC
[40] = tested on: SK-OV-3 ovarian
[41] = tested on: OVCAR-5 ovarian
[42] = tested on: SF-268 CNS
[43] = tested on: SNB-75 CNS
[44] = tested on: A549 NSCLC
[45] = tested on: EKVX NSCLC
[46] = tested on: HCT-116 colon
[47] = tested on: OVCAR-3 ovarian
[48] = tested on: NCI-H460 lung

SMILES: Cc1ccc(Nn2c(SCC(=O)Nc3nc(-c4ccccc4)cs3)nc(C)c2C)cc1
- GI50 [1]: 2660 nM
- TGI [1]: 9.54 µM
- GI50 [2]: 3.34 µM
- TGI [2]: > 100 µM
- GI50 [3]: 9.75 µM
- TGI [3]: 64.6 µM
- GI50 [4]: 7.58 µM
- TGI [4]: 35.3 µM
- GI50 [5]: 5.17 µM
- TGI [5]: > 100 µM
- GI50 [6]: 3.2 µM
- TGI [6]: 14.2 µM
- GI50 [7]: 2130 nM
- TGI [7]: > 100 µM
- GI50 [8]: 3.32 µM
- TGI [8]: 19.3 µM
- GI50 [9]: 3.79 µM
- TGI [9]: > 100 µM
- GI50 [10]: 2970 nM
- TGI [10]: 86.8 µM
- GI50 [11]: 8.3 µM
- TGI [11]: > 100 µM
- GI50 [12]: 3.04 µM
- TGI [12]: 22.2 µM
- GI50 [13]: 3.42 µM
- TGI [13]: > 100 µM
- GI50 [14]: 7.5 µM
- TGI [14]: > 100 µM
- GI50 [15]: 17.4 µM
- TGI [15]: > 100 µM
- GI50 [16]: 34.1 µM
- TGI [16]: > 100 µM
- GI50 [17]: 1850 nM
- TGI [17]: 10.4 µM
- GI50 [18]: 3.98 µM
- TGI [18]: 34.4 µM
- GI50 [19]: 4.59 µM
- TGI [19]: > 100 µM
- GI50 [20]: 1860 nM
- TGI [20]: 6.1 µM
- GI50 [21]: 3.18 µM
- TGI [21]: 14.1 µM
- GI50 [22]: 3.62 µM
- TGI [22]: > 100 µM
- GI50 [23]: 2890 nM
- TGI [23]: > 100 µM
- GI50 [24]: 2480 nM
- TGI [24]: 13.6 µM
- GI50 [25]: 4.64 µM
- TGI [25]: 39.1 µM
- GI50 [26]: 4.13 µM
- TGI [26]: 19.1 µM
- GI50 [27]: 4.41 µM
- TGI [27]: > 100 µM
- GI50 [28]: 3.15 µM
- TGI [28]: > 100 µM
- GI50 [29]: 2000 nM
- TGI [29]: 5.72 µM
- GI50 [30]: 18.9 µM
- TGI [30]: > 100 µM
- GI50 [31]: 3.7 µM
- TGI [31]: 48.6 µM
- GI50 [32]: 3.46 µM
- TGI [32]: > 100 µM
- GI50 [33]: 4.68 µM
- TGI [33]: 35.2 µM
- GI50 [34]: 4.5 µM
- TGI [34]: > 100 µM
- GI50 [35]: 2120 nM
- TGI [35]: 9.29 µM
- GI50 [36]: 1060 nM
- TGI [36]: 5.89 µM
- GI50 [37]: 4.06 µM
- TGI [37]: 62.9 µM
- GI50 [38]: 4.37 µM
- TGI [38]: 28.2 µM
- GI50 [39]: 18.4 µM
- TGI [39]: > 100 µM
- GI50 [40]: 10.6 µM
- TGI [40]: > 100 µM
- GI50 [41]: 17.2 µM
- TGI [41]: > 100 µM
- GI50 [42]: 9.1 µM
- TGI [42]: > 100 µM
- GI50 [43]: 2810 nM
- TGI [43]: > 100 µM
- GI50 [44]: 3.03 µM
- TGI [44]: > 100 µM
- GI50 [45]: 1390 nM
- TGI [45]: 5.61 µM
- GI50 [46]: 2820 nM
- TGI [46]: 26.5 µM
- GI50 [47]: 8.24 µM
- TGI [47]: > 100 µM
- GI50 [48]: 3.88 µM
- TGI [48]: 16.5 µM
